Among the data in patent US20050020544A1, “Bicyclic CB2 cannabinoid receptor ligands” (priority 2002, published 2005) are IC50 and inhibition values, retold here.

The target in experiment [1] is T1, human CB1 receptor (Homo sapiens, UniProt P21554).
T1 construct: purchased Perkin Elmer/NEN; host or cells: HEK-293 cells, stably transfected (membranes)
Nature of the experiment: biochemical. Type of experiment: binding. The following applies: CB1 IC50. The method, boiled down: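 Displacement of [3H]CP55940 from membranes of HEK-293 cells stably expressing human CB1, in 50 mM Tris-HCl, 2.5 mM EDTA, 5 mM MgCl2, 1 mg/ml BSA, pH 7.4, 0.1% DMSO; 1.5 h at 30° C, then filtration.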

The target of experiment [2] is human CB2 receptor (Homo sapiens, UniProt P34972). The experiment is described as follows: Adenylylcyclase assay: forskolin-activated cAMP in CB2 transfected HEK-293 cells. Format: cell-based. Conditions: HEK293, read-out: % inhibition at 1 μM; CB2 receptor transfected HEK-293, 1 μM forskolin. As for the experimental part:
(§1) Cannabinoids and derivatives bind to G-protein-coupled CB1 and CB2 receptors and exert their activity via the inhibition of adenylylcyclase activity. An adenylylcyclase assay forms a basis for the functional analysis of the compounds by determining their capacity to inhibit or promote forskolin-activated cAMP production. The assay is carried out according to Chin et al. (Chin, C. N. et al., J. Neurochem. 70: 366-73, 1998). Briefly, HEK-293 human kidney cells (ATCC#CRL-1573) stably transfected with either the human CB1 or CB2 receptor (cDNA) were grown in DMEM supplemented with 10% fetal calf serum, 1% Penicillin-Streptomycin and 2 mM L-glutamine. Cells were seeded in 24 wells plate at 5×10^4 cells/well and incubated for 48 hours. Medium was then removed and the adherent cells were washed with PBS. Two hundred μl of serum free medium supplemented with 0.2 mM Ro 20-1724, 0.25% BSA, and 20 mM HEPES was then added to each well. The cells were then activated with 1 μM forskolin in presence of the bicyclic test compounds in concentrations ranging from 10 pM up to 1 μM. The activated cells were then incubated at 37° C. for 20 minutes and the reaction terminated with 1.2 M HCl to a final concentration of 0.1 M. Cells were lyzed by freeze and thaw and the lysate was neutralized with 2 M HEPES, pH 7.5. cAMP was measured in 50 μl aliquots using the [^3H]-cAMP assay system (Amersham).
(§2) This experiment was first performed on CB2 receptor transfected cells.

In experiment [3] the target is T1, human CB1 receptor. The experiment is described as follows: Adenylylcyclase assay: forskolin-activated cAMP in CB1 transfected HEK-293 cells. Format: cell-based. How it is done: as §1, §2

pIC50: −log10 of the molar value.

T1 sequence (P21554 whole entry): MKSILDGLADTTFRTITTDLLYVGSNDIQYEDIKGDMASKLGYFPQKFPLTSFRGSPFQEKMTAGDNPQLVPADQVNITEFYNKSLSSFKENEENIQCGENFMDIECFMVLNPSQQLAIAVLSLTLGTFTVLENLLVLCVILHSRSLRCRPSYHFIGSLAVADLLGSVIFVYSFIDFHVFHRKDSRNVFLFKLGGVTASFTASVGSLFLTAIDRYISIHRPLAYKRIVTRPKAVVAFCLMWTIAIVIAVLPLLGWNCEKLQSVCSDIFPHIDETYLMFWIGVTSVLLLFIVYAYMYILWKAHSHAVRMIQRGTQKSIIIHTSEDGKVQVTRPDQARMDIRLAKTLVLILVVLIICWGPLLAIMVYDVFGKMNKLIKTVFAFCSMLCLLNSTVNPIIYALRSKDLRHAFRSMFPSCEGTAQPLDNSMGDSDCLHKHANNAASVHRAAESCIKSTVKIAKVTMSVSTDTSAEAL
Chain of human CB2 receptor (P34972 whole entry): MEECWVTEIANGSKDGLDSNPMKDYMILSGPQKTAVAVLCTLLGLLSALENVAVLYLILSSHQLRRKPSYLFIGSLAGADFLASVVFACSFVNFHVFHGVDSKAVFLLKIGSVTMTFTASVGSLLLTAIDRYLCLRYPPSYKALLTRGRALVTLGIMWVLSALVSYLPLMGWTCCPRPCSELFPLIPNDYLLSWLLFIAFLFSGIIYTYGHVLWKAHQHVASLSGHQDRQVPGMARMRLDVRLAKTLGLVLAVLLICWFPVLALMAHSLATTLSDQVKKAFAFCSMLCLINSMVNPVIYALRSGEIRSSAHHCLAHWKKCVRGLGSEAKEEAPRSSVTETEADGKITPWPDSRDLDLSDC

A word on the pIC50: it is the IC50 on a negative log10 scale, so that one unit is a factor of ten. High values mean a low IC50, low ones a high IC50. As a reminder, the inhibition is the drop in the measured response relative to a control, in per cent. Take `CCCCCCC(C)(C)c1cc(O)c2c(c1)OC(C)(C)[C@@H]1CC=C(CO)C[C@@H]21` [HU-210, 7-hydroxy-Δ^6-tetrahydrocannabinol-1,1-dimethyl-heptyl, reference compound]: the pIC50 in experiment [1] was 9.41; in experiment [3], 9.46. For the same molecule, the inhibition at 1 µM in experiment [2] was determined as 50%; in experiment [3] (HEK293, CB1 transfected HEK-293, 1 μM forskolin, read-out: maximal inhibition at 1 μM) it was 73%.
